Measured values: PMC10138654, “Structural Insights into M1 Muscarinic Acetylcholine Receptor Signaling Bias between Gαq and β-Arrestin through BRET Assays and Molecular Docking” (International Journal of Molecular Sciences, 2023)
Read-outs that look alike come from different tables or passages of the source.

Columns and labels:
M1mAChR [1] = target: T1, M1mAChR (Homo sapiens, UniProt P11229); experiment: cell-based
T1 construct: host or cells: HEK-293T
Target sequence in this assay (P32121 whole entry partner, one chain of several): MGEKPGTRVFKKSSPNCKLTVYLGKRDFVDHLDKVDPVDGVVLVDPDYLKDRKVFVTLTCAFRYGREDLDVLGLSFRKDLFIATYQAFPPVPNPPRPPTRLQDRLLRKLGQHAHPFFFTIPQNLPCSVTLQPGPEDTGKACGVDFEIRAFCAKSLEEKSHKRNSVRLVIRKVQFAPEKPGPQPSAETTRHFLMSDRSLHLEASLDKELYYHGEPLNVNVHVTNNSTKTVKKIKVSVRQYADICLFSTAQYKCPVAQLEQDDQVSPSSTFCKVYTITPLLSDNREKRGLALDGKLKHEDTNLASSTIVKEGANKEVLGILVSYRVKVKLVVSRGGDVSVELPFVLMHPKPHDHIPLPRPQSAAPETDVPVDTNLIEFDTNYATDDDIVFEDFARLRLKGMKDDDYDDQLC

M1mAChR [2] = target: T2, M1mAChR (Homo sapiens, UniProt P11229); experiment: cell-based; conditions: for EC50: CHO-M1 cells, unit inferred, read-out: EC50, Fluo4-AM calcium, printed in Figure 6 panels B-G
T2 sequence (P11229 1-460): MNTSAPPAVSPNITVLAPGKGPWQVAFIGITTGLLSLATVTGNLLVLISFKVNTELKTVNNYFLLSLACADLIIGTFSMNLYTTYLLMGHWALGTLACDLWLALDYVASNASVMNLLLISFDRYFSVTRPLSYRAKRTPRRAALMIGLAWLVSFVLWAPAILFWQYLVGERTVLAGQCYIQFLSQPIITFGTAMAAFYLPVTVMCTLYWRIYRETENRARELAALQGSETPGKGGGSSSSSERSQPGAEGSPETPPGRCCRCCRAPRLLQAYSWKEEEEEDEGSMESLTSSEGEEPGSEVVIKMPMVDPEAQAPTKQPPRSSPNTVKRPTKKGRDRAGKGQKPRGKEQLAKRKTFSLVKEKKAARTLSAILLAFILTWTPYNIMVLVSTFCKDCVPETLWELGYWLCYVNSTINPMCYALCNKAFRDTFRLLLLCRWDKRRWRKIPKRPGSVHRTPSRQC
Protocol: The M1mAChR receptor primarily couples with Gαq, which connects it to several signaling pathways, such as PLC (phospholipase C, PLC), IP3 (inositol triphosphate, IP3), DAG (diacylglycerol, DAG), PKC (protein kinase C, PKC), and calcium signaling. Additionally, the Gαq-PLC signaling pathway plays a role in the activation of cAMP ([…], cAMP) via IP3-calcium release and calmodulin [9].
The influx of intracellular calcium was determined using Fluo4-AM (DOJINDO, Tonomachi, Japan, Cat. No.F311). CHO-M1 cells were seeded on 96-well plates at a density of 40,000 cells/well. The cells were treated with 5 µM of Fluo4-AM in 5 mM of CaCl2 buffer and incubated for 30 min at 37 °C in complete darkness.

M1mAChR [3] = target: T1, M1mAChR; experiment: cell-based; conditions: for EC50: HEK293T cells
Target sequence in this assay (P50148 whole entry partner, one chain of several): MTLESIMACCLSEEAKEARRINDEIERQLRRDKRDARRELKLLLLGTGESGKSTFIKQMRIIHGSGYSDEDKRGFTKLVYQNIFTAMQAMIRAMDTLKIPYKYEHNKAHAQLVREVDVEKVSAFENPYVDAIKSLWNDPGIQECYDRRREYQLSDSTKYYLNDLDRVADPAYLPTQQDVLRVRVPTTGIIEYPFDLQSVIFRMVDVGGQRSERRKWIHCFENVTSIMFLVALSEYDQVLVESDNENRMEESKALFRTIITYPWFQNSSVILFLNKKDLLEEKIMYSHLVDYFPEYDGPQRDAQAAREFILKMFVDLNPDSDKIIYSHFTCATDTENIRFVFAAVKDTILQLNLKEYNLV
Target sequence in this assay (P62879 2-340 partner limits assumed, one chain of several): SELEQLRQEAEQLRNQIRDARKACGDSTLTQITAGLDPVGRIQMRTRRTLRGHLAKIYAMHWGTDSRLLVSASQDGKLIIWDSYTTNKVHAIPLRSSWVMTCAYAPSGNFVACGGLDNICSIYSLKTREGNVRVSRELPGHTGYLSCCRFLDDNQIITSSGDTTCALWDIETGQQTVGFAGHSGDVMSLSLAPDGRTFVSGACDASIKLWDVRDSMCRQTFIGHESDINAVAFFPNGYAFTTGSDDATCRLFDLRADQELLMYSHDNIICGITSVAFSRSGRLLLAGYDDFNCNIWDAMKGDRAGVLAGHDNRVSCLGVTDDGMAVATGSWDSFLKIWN
Target sequence in this assay (P59768 2-68 partner limits assumed, one chain of several): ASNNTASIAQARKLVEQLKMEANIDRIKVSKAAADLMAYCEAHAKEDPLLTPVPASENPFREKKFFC

M1mAChR [4] = target: T2, M1mAChR; experiment: cell-based; conditions: for EC50: CHO-M1 cells, unit inferred, read-out: EC50, β-arrestin2 recruitment by FRET, printed in Figure 6 panels I-N
Protocol: To further analyze the signaling bias of the agonists, a β-arrestin recruitment kit was utilized based on HTRF (Homogeneous Time Resolved Fluorescence, HTRF) technology. The interaction between native β-arrestin2 and AP2 was detected using a Europium cryptate-labeled AP2 (Adaptin2, AP2) antibody (Europium donor) and a d2-labeled β-arrestin2 antibody (acceptor) (Figure 6H).
We used the β-arrestin2 recruitment KIT test (PerkinElmer, Waltham, MA, USA, Cat. No. 62BDBAR2PEB). Following 24 h of incubation, the cell culture medium was removed, and Stimulation Buffer 4 was added to the negative control group and the blank group, while a diluted agonist was added to the agonist group, at a volume of 100 µL for each group. The plates were then sealed and allowed to incubate at room temperature for 15 min. Then, we removed the Stimulation Buffer 4 from the wells and added 30 µL of Stabilization Buffer 1, sealed the plate, and incubated it at room temperature for 15 min. Afterward, Stabilization Buffer 1 was removed, and the wells were washed three times with 100 µL of Wash Buffer 1. Following that, 100 µL of pre-mixed d2 and Eu cryptate antibodies were added to the wells, and the plates were sealed and incubated overnight at room temperature. Finally, the plates were read using an HTRF-compatible reader.

M1mAChR [5] = target: T2, M1mAChR; assay type: cell-based; conditions: BRET assays
Protocol: The potencies and efficacies of Gαq and β-arrestin2 were verified using BRET assays, as well as commercial methods, to monitor G protein binding and β-arrestin recruitment (refer to Figure 7). […] The BRET concentration–response curves were analyzed by either conducting normalization to a reference agonist for each experiment or by analyzing them as raw net BRET (fit Emax-fit baseline). The EC50 and Emax values were estimated by fitting all biological replicates simultaneously. […] To estimate the putative signaling bias between the Gαq and β-arrestin pathways, the ΔΔlog(τ/KA) method was used, based on the following equation: bias = 10^ΔΔlog(τ/KA) Gαq−β-arrestin [46], which is derived from the RAi equation [29]. Here, ΔΔlog (τ/KA) Gαq−β-arrestin = Δlog(τ/KA) Gαq − Δlog(τ/KA) β-arrestin. For all statistically analyzed studies, the experiments were performed at least three times independently. The experiments were carried out in a randomized manner. The results are presented as the mean ± SEM. Statistical analysis was performed with a one-way analysis of variance (ANOVA). A value of p < 0.05 was considered statistically significant.

muscarinic = test system: muscarinic; set-up: method as in PMID 22948826; conditions: times more potent than ACh; cited from earlier work
M1mAChR [6] = target: T2, M1mAChR; assay type: cell-based; conditions: calcium assay and commercial β-arrestin recruitment method
M1mAChR [7] = target: T1, M1mAChR; assay type: cell-based
Protocol: The kinetic response of the agonists to β-arrestin recruitment was analyzed.
The mean response over 100 s before and after the injection of the antagonist was also analyzed.
(§1) Incubate the cells for another 24 h at 37 °C with 5% CO2 until the cell density reaches 70%~80%. To transfect the cells, use expression constructs (total 0.1 μg/well) with a 1:1:1:1 DNA ratio of M1-RLuc8/Gαq/Gβ2/Gγ2-mVenus, or a 1:2 DNA ratio of M1-RLuc8/β-arrestin2-mVenus, and LipofectamineTM 3000 (0.15 µL/well) reagents (Thermo Scientific, Waltham, MA, USA, Cat. No. R25001). Incubate the cells for another 24 h at 37 °C with 5% CO2. […] Then, add 10 µL of freshly prepared luciferase substrate (here, Coelenterazine h was added at a final concentration of 5 μM, Hangzi Biotechnology, Shanghai, China) and mix the solution.
Target sequence in this assay (P32121 whole entry partner, one chain of several): as the sequence (P32121 whole entry partner, one chain of several) above

M1mAChR [8] = target: T1, M1mAChR; assay type: cell-based; conditions: Scopolamine 100 μM; agonist 1 μM (Pilocarpine 300 μM); mean response 100 s before vs after antagonist
Protocol: as §1
Target sequence in this assay (P50148 whole entry partner, one chain of several): as the sequence (P50148 whole entry partner, one chain of several) above
Target sequence in this assay (P62879 2-340 partner limits assumed, one chain of several): as the sequence (P62879 2-340 partner limits assumed, one chain of several) above
Target sequence in this assay (P59768 2-68 partner limits assumed, one chain of several): as the sequence (P59768 2-68 partner limits assumed, one chain of several) above

[9] = dose-response curve, unit inferred, read-out: EC50, β-arrestin2 interaction with M1mAChR (BRET), Figure 4
[10] = read-out: EC50, β-arrestin2 binding to M1mAChR (BRET)
[11] = dose-response curve, unit inferred, read-out: EC50, Gαq interaction with M1mAChR (BRET), in Figure 2 panels
[12] = read-out: EC50, Gαq binding to M1mAChR (BRET)
[13] = relative intrinsic activity, relative to ACh

SMILES	EC50 (M1mAChR [1]; [9])	EC50 (M1mAChR [1]; [10])	EC50 (M1mAChR [2])	EC50 (M1mAChR [3]; [11])	EC50 (M1mAChR [3]; [12])	EC50 (M1mAChR [4])	β-Arrestin (BRET) (Δlog (τ/KA)) (M1mAChR [1]; [13])	Gαq (Fluo4-AM) (Δlog (τ/KA)) (M1mAChR [2]; [13])	Gαq (BRET) (Δlog (τ/KA)) (M1mAChR [3]; [13])	∆∆RAi (Gαq − β-arrestin2) (M1mAChR [5])	bias factor (Gαq vs β-arrestin2) (M1mAChR [5]; bias = 10^ΔΔlog(τ/KA) Gαq−β-arrestin, relative to ACh)	potency relative to ACh (muscarinic)	signaling bias by commercial methods (M1mAChR [6])	β-Arrestin (FRET) (Δlog (τ/KA)) (M1mAChR [4]; [13])	decrease of agonist-induced β-arrestin2 BRET response by Atropine (M1mAChR [7])	decrease of agonist-induced β-arrestin2 BRET response by Scopolamine (M1mAChR [7])	decrease of agonist-induced Gαq BRET response by Scopolamine (M1mAChR [8])
C[N+](C)(C)CC#CCOC(=O)Nc1cccc(Cl)c1 [McN-A-343]	981 nM	980 nM	718 nM	11.1 nM	11 nM	1550 nM											
C[N+](C)(C)CC#CCOC1=NOCC1 [Iperoxo]	72 nM	72 nM	12.5 nM	24.8 nM	24.8 nM	646 nM	1.27 ± 0.020	0.98 ± 0.003	1.56 ± 0.090	0.3	2	approximately 100 times	predominantly biased towards Gαq	−0.03 ± 0.040	60%	54%	approximately 41%
